Test system: Cell-based prion protein 5' UTR reporter, plate reader
Test: prion protein 5' UTR mRNA inhibitors – cell-based, plate reader, cherry-picked samples, dose response (AID 504539)

Structure (SMILES) | AC50 [nM]
C=C1C(=O)O[C@@H]2C[C@@H](C)[C@@H]3C=CC(=O)[C@@]3(C)[C@@H](O)[C@H]12 | 1580
CCc1ccn2cc(-c3cc(-c4ccccc4)no3)nc2c1 | 558
O=C(/C=C/c1ccccc1)Nc1cccc(C(=O)O)c1 | 392
Cc1nc2ncccn2c1-c1csc(Nc2ccc(N(C)C)cc2)n1 | 168
COc1ccc2c(c1)sc1nc(-c3ccccc3)cn12 | 556
COc1cc2c(c(OC)c1OC)-c1ccc(SC)c(=O)cc1C(NC(=O)c1ccccc1)CC2 (configuration not stated) | < 38
CCCOC(=O)c1[nH]c2c(c1C)C(=O)CC(c1cccs1)C2 (configuration not stated) | 132
CN(C)c1ccc(/C=N/Nc2cccc(C(=O)O)c2)cc1 | 547
CC(/C=C1\SC(=O)N(CCCC(=O)O)C1=O)=C\c1ccccc1 | 162
Cc1cccc(/C=N/Nc2ccc3ccccc3n2)c1 | 456
CC[C@@H](C)[C@H](C(CC(=O)N1CCCC1[C@@H](OC)[C@H](C)C(=O)N[C@H](Cc1ccccc1)c1nccs1)OC)N(C)C(=O)[C@H](NC(=O)[C@@H](C(C)C)N(C)C)C(C)C (some centres not stated) | 117
C=CCOc1ccc(/C=C2\SC(=S)N(CCC(=O)O)C2=O)cc1 | 963
Cc1ccc(C(=O)Nc2ncc(Cc3ccc(SC(F)F)cc3)s2)cc1 | 1560
O=C(CN1C(=O)c2ccccc2S1(=O)=O)N1CCc2ccccc21 | 582
CC12CCC(O)CC1CCC1C2CCC2(C)C(C3=CC(=O)OC3)CCC12O (configuration not stated) | 230
CC[C@@]1(O)C(=O)OCc2c1cc1n(c2=O)Cc2cc3c(NC(=O)CN)cccc3nc2-1 | 232
Cc1cc(C(=O)COC(=O)c2ccccc2Br)c(C)n1CC1CCCO1 (configuration not stated) | 90
Cc1nn(-c2ccccc2)c(C)c1/C=N/NC(=O)c1cc(-c2ccccc2)n[nH]1 | 783
CCN1CCN(Cc2ccc(NC(=O)c3ccc(C)c(NC(=O)c4cncc(-c5cccs5)c4)c3)cc2C(F)(F)F)CC1 | 156
OCC1OC(n2ccc3c(NO)ncnc32)C(O)C1O (configuration not stated) | 189
S=C(Nc1ccccc1)Nc1ccc(OCc2ccc(Cl)cc2Cl)cc1 | 355
C=CCn1c(SCc2c(C)noc2C)nc2ccccc2c1=O | 851
N#Cc1c(NC(=O)CSc2ncn[nH]2)sc2c1CCCCC2 | 82
CC1=CC(C)CC(C)OC(=O)CC(c2ccc(O)cc2)NC(=O)C(Cc2c(Br)[nH]c3ccccc23)N(C)C(=O)C(C)NC(=O)C(C)C1 (configuration not stated) | 146
CC(C)(C)C(=O)Nc1ccc(NC(=O)c2ccco2)nc1 | 244
COc1ccc(-n2ncc3c(N(C)C4CCCCC4)ncnc32)cc1 | 1520

Structure (SMILES) | AC50 [nM]
CC1CCCN(c2ncnc3c2cnn3-c2ccc(Cl)cc2)C1 (configuration not stated) | < 38
CC(=O)OC1CC(OC2C(O)CC(OC3C(O)CC(OC4CCC5(C)C(CCC6C5CCC5(C)C(C7=CC(=O)OC7)C(O)CC65O)C4)OC3C)OC2C)OC(C)C1OC1OC(CO)C(O)C(O)C1O (configuration not stated) | 370
COC(=O)C12OCC34C(CC5C(C)=C(O)C(=O)CC5(C)C3C(O)C1O)OC(=O)C(OC(=O)C=C(C)C)C24 (configuration not stated) | < 38
CC(=O)CSc1ccc(-c2nc3cc(C)c(C)cc3[nH]2)cn1 | 434
O=C(NNC(=O)c1ccccc1O)c1ccccc1O | 234
Cc1c(/C=N\NC(=O)C2COc3ccccc3O2)c2ccccc2n1C (configuration not stated) | 3040
COC(=O)c1cc(C(=O)N2CCN(c3cccc(Cl)c3)CC2)cc([N+](=O)[O-])c1 | 470
Cc1cc(C(=O)COC(=O)c2ccccc2O)c(C)n1Cc1cccs1 | 83
Cc1ccc2nc(NC(=O)c3ccccn3)sc2c1 | 220
Cc1ccc(C(=O)O/N=C(\N)c2ccccn2)c(Cl)c1 | 197
Cc1ccc(C(=O)n2c(N)nc3ccccc32)cc1 | 493
Cc1ccc(-c2cc3c(N=O)c4ccccc4c-3n[nH]2)cc1 | 438
O=C1NC2C(=CC(O)C(O)C2O)c2cc3c(c(O)c21)OCO3 (configuration not stated) | 205
CCCOc1ccccc1C1CC(=O)Nc2cc3c(cc21)OCCO3 (configuration not stated) | 2900
Cc1ccc(C(=O)NCCc2ccccc2)cc1 | 612
CCOC(=O)c1[nH]c2c(c1C)C(=O)CC(c1ccco1)C2 (configuration not stated) | 360
Cc1ccc(C(=O)O/N=C(\N)c2ccccn2)cc1C | 708
O=c1c2ccccc2cnn1CCOc1ccccc1 | 354
NC(=S)NN=Cc1nccc2ccccc12 | 2800
CCCc1ccc(C(=O)O/N=C(\N)c2ccccn2)cc1 | 1080
CCC(C)C1NC(=O)C(NC(=O)C(CC(C)C)N(C)C(=O)C2CCCN2C(=O)C(C)O)C(C)OC(=O)C(Cc2ccc(OC)cc2)N(C)C(=O)C2CCCN2C(=O)C(CC(C)C)NC(=O)[C@H](C)C(=O)[C@H](C(C)C)OC(=O)CC1O (some centres not stated) | 84
O=c1c2ccccc2sc2ccc(C#CC3(O)CCCCC3)cc12 | < 38
Cc1ccc(CCC(=O)Nc2ncc(Cc3cccc(Cl)c3Cl)s2)o1 | 358
COc1ccc(CCc2cc(OC)c(OC)c(OC)c2)cc1 | 40
Cc1cc(C(=O)CN2C(=O)c3ccccc3S2(=O)=O)c(C)n1C(C)C | 2160
COC(=O)Cc1[nH]n(-c2nc3ccccc3s2)c(=O)c1C(C)=Nc1ccc(C)cc1 | 401

Structure (SMILES) | AC50 [nM]
Nc1ccc(-c2cc3ccccc3c(=O)o2)cc1 | 467
C(=N\Nc1ccc2ccccc2n1)/c1ccc2c(c1)OCCO2 | 1220
CC1=CC2OC3CC4OC(=O)C=CC=CC(=O)OCCC(C)C(O)C(=O)OCC2(CC1O)C4(C)C31CO1 (configuration not stated) | < 38
Cn1ncnc2c(=O)n(C)c(=O)nc1-2 | 135
CCC1CN2CCc3cc(OC)c(OC)cc3C2CC1CC1NCCc2c1[nH]c1ccc(O)cc21 (configuration not stated) | 216
COC(=O)Cc1[nH]n(-c2nc3ccccc3s2)c(=O)c1C(C)=Nc1ccc(OC)cc1 | 108
COc1cc(SC)ccc1C(=O)Nc1ccc(Br)cn1 | 500
CCCC[C@@H](C)C[C@@H](C)C(=O)N(C)[C@@H](CC(C)C)C(=O)N[C@H](C(=O)N(C)[C@H](C(=O)N1C[C@@H](O)C[C@H]1C(=O)N1C(=O)C=C[C@@H]1C)C(C)C)C(C)OC(C)=O (some centres not stated) | < 38
CC(=O)O[C@H]1C(=O)[C@@]2(C)[C@H]([C@H](OC(=O)c3ccccc3)[C@]3(O)C[C@H](OC(=O)[C@H](O)C(NC(=O)c4ccccc4)c4ccccc4)C(C)=C1C3(C)C)[C@]1(OC(C)=O)CO[C@@H]1C[C@@H]2O (some centres not stated) | 170
Cc1ccc(-c2cc(C(=O)N/N=C/c3c(C)nn(-c4ccccc4)c3C)[nH]n2)cc1 | 3000
CN(C)c1ccc(CCc2ccc(N)cc2)cc1 | 831
c1ccc(-c2noc(-c3ccc4c(c3)OCO4)n2)nc1 | 140
Cc1cc(C(=O)COC(=O)c2ccccc2O)c(C)n1CC1CCCO1 (configuration not stated) | < 38
O=C(c1ccc(Br)cc1)c1cc([N+](=O)[O-])ccc1N1CCCCC1 | 628
CN(CCO)c1ccc(/C=N/Nc2nncc3ccccc23)cc1 | 412
Cc1nc(SCC(=O)Nc2nccs2)c(C#N)c(C)c1C | 991
CCCCN=C[C@]12CCC(O)CC1(O)CCC1[C@@H]2CC[C@]2(C)[C@H](C3C=CC(=O)O3)CCC12O (some centres not stated) | 243
CNC(=O)Oc1ccc(-c2cn3cc(C)ccc3n2)cc1 | 556
Cc1ccc(C(=O)Nc2cnc3ccccc3c2)cc1 | 94
O=C(N/N=C/c1ccccc1)c1[nH]c2ccc(Br)cc2c1-c1ccccc1 | 460
CCCCCN1C=CC(=C2C(=O)c3ccccc3C2=O)C=C1 | 248
Cc1c(C)c2ccc(OCC(=O)Nc3ccccn3)c(C)c2oc1=O | 64
COc1ccc(C[C@H]2NC[C@H](O)[C@H]2OC(C)=O)cc1 | 378
CC(=Nc1ccccc1)C1=C(O)C(Cc2ccc(O)cc2)NC1=O (configuration not stated) | 379
COc1cc(SC)ccc1C(=O)Nc1ccc(Cl)cn1 | 567
COC(C(=O)C(O)C(C)O)C1Cc2cc3cc(OC4CC(OC5CC(O)C(O)C(C)O5)C(O)C(C)O4)c(C)c(O)c3c(O)c2C(=O)C1OC1CC(OC2CC(OC3CC(O)C(OC)C(C)O3)C(O)C(C)O2)C(O)C(C)O1 (configuration not stated) | 83

Structure (SMILES) | AC50 [nM]
CC12CCC3C(CCC4(O)CC(O)CCC34C=NO)C1(O)CCC2C1=COC(=O)C1 (configuration not stated) | 160
C[C@@H]1O[C@@H](O[C@@H]2C=C3CC[C@@H]4C(CC[C@]5(C)[C@@H](c6ccc(=O)oc6)CC[C@]45O)[C@@]3(C)CC2)[C@H](O)[C@H](O)[C@H]1O (some centres not stated) | < 38
COc1ccc2[nH]c(-c3cccc(F)c3)cc(=O)c2c1 | 1550
COC(=O)Cc1[nH]n(-c2nc3ccccc3s2)c(=O)c1C(C)=Nc1ccc(Cl)cc1 | 70
CCN1/C(=C\C=C\C2=[N+](CC)c3ccccc3C2(C)C)C(C)(C)c2ccccc21 | 924
COCCn1c(C)cc(C(=O)CSc2nnc(C)s2)c1C | 696
OCCCNc1cc(-c2ccnc(Nc3cccc(Cl)c3)n2)ccn1 | 181
COc1cc(-c2noc(C)c2/C=C/c2ccc(OC(C)=O)cc2)cc(OC)c1OC | 555
CCSc1nc(-c2ccccc2)nc(C(Cl)Cl)n1 | 1060
Nc1ccc2oc(-c3cccc4ccccc34)nc2c1 | 826
O=C1N(c2ccccc2)C[C@@H]2C[C@@H](c3cc4ccccc4o3)N3CCC[C@@]123 | 511
Cc1ccc(C(=O)O/N=C(\N)c2ccccn2)cc1 | 213
O=C(O)c1ccc(N/N=C/c2ccc3nccnc3c2)cc1 | 560
CC(C)(O)/C=C/C(=O)[C@](C)(O)C1[C@H](O)C[C@@]2(C)C3CC=C4C(C[C@H](O)[C@@H](O)C4(C)C)[C@]3(C)C(=O)C[C@]12C (some centres not stated) | 900
C[C@H]1O[C@@H](OC2CC[C@]3(C=O)[C@H]4CC[C@]5(C)[C@@H](C6=CC(=O)OC6)CC[C@]5(O)[C@@H]4CC[C@]3(O)C2)CC2OC(C)(C)OC21 (some centres not stated) | 123
CCOc1ccccc1C1CC(=O)Nc2cc3c(cc21)OCCO3 (configuration not stated) | 3820
Cc1cc(C2=NNC(=NC3CC3)SC2)c(C)n1-c1ccccc1F | < 38
Cc1ccoc1C(=O)Nc1ccc(CC(=O)O)cc1 | 374
COCCn1c(C)cc(C2=NNC(=NC3CC3)SC2)c1C | < 38
COC(=O)c1ccccc1NC(=O)Cn1c(-c2nonc2N)nc2ccccc21 | 605
CC(=O)OC1CC(OC2C(O)CC(OC3C(O)CC(OC4CCC5(C)C(CCC6C5CC(O)C5(C)C(C7=CC(=O)OC7)CCC65O)C4)OC3C)OC2C)OC(C)C1OC1OC(CO)C(O)C(O)C1O (configuration not stated) | 92
Fc1ccc(-n2nnc(-c3cnc4ccccc4c3)n2)cc1 | 1040
Nc1nc(F)nc2c1ncn2[C@@H]1O[C@H](CO)[C@@H](O)[C@H]1O | 483
CN(C)CCNc1ccc2ncn3c4ccc(O)cc4c(=O)c1c23 | 2470

From PubChem BioAssay AID504539 (Broad Institute, 2011)
